Assays:
[1] = Calculation of proportion of crystals by near-infrared spectroscopy; type: physicochemical; conditions: Compound A hemifumarate after water was added to the crystals and dried (material used for Examples 4 to 15)
Description: As a method of calculating the proportion of crystals of Compound A hemifumarate in Compound A hemifumarate, for example, the spectrum is measured, as a near-infrared spectroscopy measurement, by a Fourier transform near-infrared spectrometer (MPA, Bruker Optics K. K.)(measurement range; 12500 cm^−1 to 5800 cm^−1, resolution; 8 cm^−1, number of scans; 32), and the obtained spectrum is secondary-differentiated (Savitzky-Golay convolution method), and can be analyzed using a near-infrared spectrum analysis software (for example, OPUS, Bruker Optics K. K.). The pharmaceutical composition for oral administration is powdered using a mortar and pestle to measure the spectrum. Before the spectrum measurement of the pharmaceutical composition for oral administration, spectra of preparations, in which crystals of Compound A hemifumarate are mixed in various proportions, are regression-analyzed by a partial least square method to create a calibration curve, and each spectrum obtained from the pharmaceutical composition for oral administration is interpolated into the calibration curve to calculate the proportion of crystals of Compound A hemifumarate.
With respect to the tablets (film coated tablets) prepared in Comparative Example 1, Example 1, Example 2, and Example 3, the proportion of crystals of Compound A hemifumarate after production was calculated by near-infrared spectroscopy. […]

[2] = Stability of drug substance alone in heat and humidity (severity test or the like); type: physicochemical; conditions: certain storage conditions such as a severity test
[3] = system: EML4 (Echinoderm microtubule associated protein like-4)-ALK (Anaplastic lymphoma kinase) fusion protein; conditions: reported in Patent literature 1 (WO 2010/128659); cited from earlier work

Row | SMILES | Proportion of crystals [1] [%] | Stability of drug substance alone (in words) [2] | Inhibitory activity of a kinase activity of EML4-ALK fusion protein [3]
1 | CCc1nc(C(N)=O)c(Nc2ccc(N3CCC(N4CCN(C)CC4)CC3)c(OC)c2)nc1NC1CCOCC1 [Compound A hemifumarate] | 62 | stable in heat and humidity alone | 
2 | CCc1nc(C(N)=O)c(Nc2ccc(N3CCC(N4CCN(C)CC4)CC3)c(OC)c2)nc1NC1CCOCC1 [Compound A, 6-Ethyl-3-({3-methoxy-4-[4-(4-methylpiperazin-1-yl)piperidin-1-yl]phenyl}amino)-5-(tetrahydro-2H-pyran-4-ylamino)pyrazine-2-carboxamide] |  |  | inhibitory activity
